Reference: US10174020B2, “Pyridone or pyrimidone derivative, preparation method therefor and application thereof” (Sichuan Haisco Pharmaceutical Co., Ltd., priority 2014, dated 2019)

Key:
[1] = tested on: human plasma; assay: In vitro assay of the blood coagulation function of human plasma (APTT); type: biochemical; details: concentration required to double the plasma APTT, read-out: aPTT EC2×
Description: 20 ml blood was taken by venipuncture from the ulnar vein of each of 20 healthy volunteers aged 25 to 35 years who had not taken any medicines within last one week, and was collected in a sodium citrate anticoagulation tube, with the ratio of anticoagulant to blood being 1:9 (v/v). Anticoagulation blood was taken and centrifuged at 200 g for 15 min, the supernatant therefrom was taken and centrifuged at 2000 g for 15 min, and then the supernatant therefrom was collected, well mixed, separated into 4 to 5 ml aliquots, and stored at −80° C. For APTT and PT assays, a plasma sample was taken and rapidly thawed in a 37° C. water bath, and 6 μl test compound working solution was added per 294 μl plasma, while 6 μl DMSO was added for the blank control. The compounds and plasma were well mixed, and assayed in a coagulometer. The concentration of the compounds (EC2×) required to double the plasma APTT was determined with origin 8.5, and the results are shown in Table 2.

[2] = biological target: human blood-coagulation factor XIa (Homo sapiens (Human), UniProt P03951); assay: In vitro inhibitory effect on the enzymatic activity of blood-coagulation factor XIa (S2366 substrate, absorbance at 405 nm); type: biochemical; details: calculated from IC50 at substrate S2366 200 μM, Km=0.2 mM; IC50=Ki(1+[S]/Km)
Chain of human blood-coagulation factor XIa (P03951 388-625): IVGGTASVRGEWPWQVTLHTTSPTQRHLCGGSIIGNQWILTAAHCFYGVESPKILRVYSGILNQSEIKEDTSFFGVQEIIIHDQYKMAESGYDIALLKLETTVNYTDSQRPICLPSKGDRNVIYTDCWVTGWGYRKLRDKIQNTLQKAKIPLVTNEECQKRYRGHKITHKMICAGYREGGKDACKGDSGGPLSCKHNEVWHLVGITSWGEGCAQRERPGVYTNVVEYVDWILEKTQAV
Chain of human blood-coagulation factor XIa (P03951 19-387 partner): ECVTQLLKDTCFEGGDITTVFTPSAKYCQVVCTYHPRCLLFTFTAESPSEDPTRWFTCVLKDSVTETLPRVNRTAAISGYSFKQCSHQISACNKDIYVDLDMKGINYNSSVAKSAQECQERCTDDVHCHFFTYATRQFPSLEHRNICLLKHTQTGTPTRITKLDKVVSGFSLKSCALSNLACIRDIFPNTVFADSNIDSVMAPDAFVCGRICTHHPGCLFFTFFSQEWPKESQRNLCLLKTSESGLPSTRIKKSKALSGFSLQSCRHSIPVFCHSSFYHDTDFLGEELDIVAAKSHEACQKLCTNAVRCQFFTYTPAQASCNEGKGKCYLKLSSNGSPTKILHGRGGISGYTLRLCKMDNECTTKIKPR
Description: The following method was used to test the in vitro inhibitory effect of the compounds of the present invention on the activity of human blood-coagulation factor XIa, expressed by the Inhibition constant Ki.
Solution preparation: reaction buffer: 0.03M HEPES acid, 0.145M NaCl, 0.005 M KCl, 0.1% PEG-8000, pH=7.5;
HEPES 8.499 g, NaCl 8.47 g, KCl 0.3725, PEG 8000 1 g, plus ddH2O 800 ml; the pH was adjusted to […] with HCl, and the volume was metered to 1 L.
S2366 substrate stock solution (2 mM): a volume of substrate […] was dissolved in 23 ml sterile deionized water, aliquoted, and stored at 4° C. in darkness.
S2366 substrate working solution: the stock solution was diluted by 4 folds with the reaction buffer before use.
FXIa working solution: 1 μl FXIa stock solution was added to 10 ml reaction buffer and thoroughly mixed before use.
Method: 15 μl test sample working solution (15 μl DMSO for the control group) and 75 μl FXIa working solution were added to a 96-well plate, and incubated at room temperature for 15 min. Then 60 μl S2366 substrate working solution was added to initiate the reaction. The absorbance at 405 nm for the test compounds was continually assayed once every 3 minutes, and a ΔA-time curve was plotted to calculate the slope as the reaction rate. In accordance with the following equation, IC50 of each test sample when the substrate concentration was 200 μM was calculated with spss 16.0. Inhibition (I %) and Ki of the test samples were calculated in accordance with the follow equations, and the results are shown in Table 1. I %=(V0−Vi)/V0×100 where V0 is the reaction rate in the control wells, and Vi is the reaction rate in the test sample wells; IC50=Ki(1+[S]/Km) where Km=0.2 mM, and [S] is the substrate concentration=200 μM.

Ki [2] [nM]	Compound	EC50 [1] [nM]
17	O=C(O)c1cc2cc(NC(=O)C3CCc4nc(-c5cc(Cl)ccc5-n5cnnn5)cc(=O)n43)ccc2[nH]1 (stereo not shown) [Compound 4, N-(2-carboxyindol-5-yl)-2-(5-chloro-2-(1H-tetrazol-1-yl)phenyl)-4-oxo-4,6,7,8-tetrahydropyrrolo[1,2-a]pyrimidine-6-carboxamide]	9500
68	O=C(O)c1ccc(NC(=O)C2CCc3cc(-c4cc(Cl)ccc4-n4cnnn4)cc(=O)n32)cc1 (stereo not shown) [Compound 2, N-(4-carboxyphenyl)-7-(5-chloro-2-(1H-tetrazol-1-yl)phenyl)-5-oxo-1,2,3,5-tetrahydroindolizine-3-carboxamide]	
4	O=C(O)c1cc2cc(NC(=O)C(Cc3ccccc3)n3ccc(-c4cc(Cl)ccc4-n4cnnn4)cc3=O)ccc2[nH]1 (stereo not shown) [Compound 9, 5-[[2-[4-[5-chloro-2-(tetrazol-1-yl)phenyl]-2-oxo-1-pyridyl]-3-phenyl-propanoyl]amino]-1H-indole-2-carboxylic Acid]	6400
249	O=C(O)c1ccc(NC(=O)C2CCc3nc(-c4cc(Cl)ccc4-n4cnnn4)cc(=O)n32)cc1 (stereo not shown) [Compound 1, N-(4-carboxyphenyl)-2-(5-chloro-2-(1H-tetrazol-1-yl)phenyl)-4-oxo-4,6,7,8-tetrahydropyrrolo[1,2-a]pyrimidine-6-carboxamide]	
146	O=C(Cn1ccc(-c2cc(Cl)ccc2-n2cnnn2)cc1=O)Nc1ccc(C(=O)O)cc1 [Compound 5]	
14	O=C(Cn1ccc(-c2cc(Cl)ccc2-n2cnnn2)cc1=O)Nc1ccc2[nH]c(C(=O)O)cc2c1 [Compound 6]	

Compound	Ki [2] [nM]	EC50 [1] [nM]
O=C(O)c1cc2cc(NC(=O)C3CCc4cc(-c5cc(Cl)ccc5-n5cnnn5)cc(=O)n43)ccc2[nH]1 (stereo not shown) [Compound 3, N-(2-carboxyindol-5-yl)-7-(5-chloro-2-(1H-tetrazol-1-yl)phenyl)-5-oxo-1,2,3,5-tetrahydroindolizine-3-carboxamide]	9	6100
O=C(O)c1cc2cc(NC(=O)[C@@H]3CCc4cc(-c5cc(Cl)ccc5-n5cnnn5)cc(=O)n43)ccc2[nH]1 (single isomer, unassigned) [Compound 8-1]	2	2300
O=C(O)c1cc2cc(NC(=O)[C@H]3CCc4cc(-c5cc(Cl)ccc5-n5cnnn5)cc(=O)n43)ccc2[nH]1 (single isomer, unassigned) [Compound 8-2]	1030	
